Test: Human HepG2 cell viability assay in 384 well format
Assay type: toxicity, cell-based
Set-up: dose 125 nL, time 70.5 hour; cytotoxicity at 70.5 h: concentration not given beside the values
Conditions: HepG2 cells, read-out: Inhibition

In order of rising cytotoxicity at 70.5 h:
1. Cn1nc(-c2ccc(Cl)cc2)c(Br)c1C(=O)O  -23.3%
2. Cn1nc(-c2ccccc2)c(Br)c1C(=O)O  -23.2%
3. CSCC[C@H](NC(=O)Cn1ccc2c(Br)cccc21)C(=O)O  -21.8%
4. COCC(=O)N(Cc1ccc2cc[nH]c2c1)C1CC1  -21%
5. COc1ccc(C)cc1CN1CCOC(Cn2nc(C)nc2C)C1 (stereo not given)  -19.6%
6. Cc1cc(C2CCC2)nc(N2CCC3(CCCNC3=O)C2)n1 (stereo not given)  -18.8%
7. CC(Cn1cccn1)NCc1nc(-c2ccco2)no1 (stereo not given)  -16.5%
8. Cc1cnc2c(S(=O)(=O)N(C)C3CCS(=O)(=O)C3)cccc2c1 (stereo not given)  -16.4%
9. COc1c(C(N)=O)cn(C)c1-c1nc2cc(NC(C)=O)ccc2n1C  -14.7%
10. c1cc(CN2CCOC(Cn3cccn3)C2)c2c(c1)OCCO2 (stereo not given)  -14.1%
11. CC(C)c1ncc2c(n1)CN(Cc1nc(-c3ccsc3)no1)CC2  -13.7%
12. COc1cccc(Oc2nc(C)c(C(=O)O)s2)c1OC  -13.3%
13. Cc1nc(C)n(CC2CN(Cc3nc4ccccc4n3C)CCO2)n1 (stereo not given)  -13.3%
14. O=C(NCCc1ccc(Cl)s1)NCc1nnc2n1CCCC2  -12.9%
15. CCC1CN(C(=O)CN2CCN(c3nccc(OC)n3)CC2)CCO1 (stereo not given)  -12.3%
16. Cc1c(C2N3C[C@]4(C)CN2C[C@](C)(C3)C4=O)[nH]c(=O)[nH]c1=O (stereo not given in full)  -11.7%
17. Cc1nc(C)n(CC2CN(Cc3cccc4ccccc34)CCO2)n1 (stereo not given)  -11.6%
18. O=C(CCS(=O)(=O)C1CCCC1)NCc1ccccc1Cn1cncn1  -11%
19. Cc1nc(C)n(CC2CN(Cc3cccc(OC(C)C)c3)CCO2)n1 (stereo not given)  -10.6%
20. CC(C)c1nccn1C1CCCN(C(=O)CCCc2ccccn2)C1 (stereo not given)  -10.5%
21. CC(C)c1n[nH]c(C2CN(C(=O)c3cc(C4CC4)[nH]n3)CCO2)n1 (stereo not given)  -10.5%
22. CC(C)c1nccc(N2CCN(CC(=O)N3CCOCC3)CC2)n1  -10.5%
23. O=C(Cn1ccc2ccccc21)NC[C@@H]1CCCN2CCCC[C@H]12  -10.1%
24. CC(NC(=O)NCc1ccccc1)(C(=O)O)c1ccco1 (stereo not given)  -9.81%
25. O=C(NCC1CCCO1)N1CCN(Cc2ccc3c(c2)CCO3)CC1 (stereo not given)  -9.76%
26. Nc1nc2c(c3c1C(=O)NC3=O)CCCC2  -9.66%
27. Cc1nc(C)n(CC2CN(Cc3ccccc3OC(C)C)CCO2)n1 (stereo not given)  -9.52%
28. CCCn1nc2c(cc1=O)CN(Cc1nc(C)c(C)o1)CC2  -9.42%
29. Cc1cc(-c2n[nH]c3c2CN(S(=O)(=O)c2ccsc2)CC3)c(C)o1  -9.27%
30. O=C(NCc1ccccc1Cn1cncn1)C1CCCCC1  -9.09%
31. Cc1cc(=O)n(CC(=O)NC2CCCCC2)c2ccccc12  -8.81%
32. CCOc1ccnc(N2CCN(C(=O)c3cccnc3)CC2)n1  -8.35%
33. CC(C)CCc1n[nH]c(C(=O)O)c1I  -8.29%
34. Cc1nc(C(C)(C)C)sc1C(=O)NCCNc1ncccn1  -8.27%
35. COc1ccnc(N2CCN(CC(O)CN3CCOCC3)CC2)n1 (stereo not given)  -8.1%
36. Cc1cnn(CC(C)NCc2nc(-c3cccs3)no2)c1 (stereo not given)  -7.53%
37. O=C(O)Cn1ccc(=O)c2ccc(Cl)cc21  -7.34%
38. COc1ccc2c(ccn2CC(=O)NC[C@@H]2CCCN3CCCC[C@H]23)c1  -7.27%
39. Cc1cccc(OCCNC(=O)CN2CCc3cncnc3C2)c1  -7.19%
40. CC(C)CCc1n[nH]c(C(=O)O)c1Br  -7.1%
41. Cc1cccc2c1ccn2CC(=O)NC[C@@H]1CCCN2CCCC[C@H]12  -6.63%
42. CCc1ccc(OCC(=O)N2CCN(CC)CC2)cc1  -6.61%
43. CC(C)c1nccn1C1CCCN(C(=O)CCc2cscn2)C1 (stereo not given)  -6.33%
44. Cc1ncsc1C(=O)NC1CCN(CC(N)=O)CC1  -6.12%
45. O=C1[C@@H]2CN(c3ncc(Cl)cc3F)C[C@]2(C(=O)O)CN1CC1CC1  -5.98%
46. Cc1ccc(C(C)NCc2c(C(C)C)nn(C)c2N2CCOCC2)o1 (stereo not given)  -5.88%
47. CN(Cc1cccnc1)CC1CCOc2ccccc2C1 (stereo not given)  -5.68%
48. COc1ccccc1OCc1cc(C(=O)N2CCC(C(C)O)CC2)n[nH]1 (stereo not given)  -5.66%
49. COc1cc(C)nc(N2CCN(C(=O)c3cccc(C#N)c3)CC2)n1  -5.09%
50. Cc1ncncc1C(=O)N1CCOC(c2nc(C(C)C)n[nH]2)C1 (stereo not given)  -4.74%
51. COc1cccc(CN(C)C(=O)NCc2c(C)cc(C)[nH]c2=O)c1  -4.51%
52. Cc1cc(C)n(CC2CN(CCOc3ccc(C#N)cc3)CCO2)n1 (stereo not given)  -4.48%
53. CCOC(=O)N1CCN(CC(=O)Nc2nnc(CC)s2)CC1  -4.24%
54. O=C(NCc1ccccc1Cn1cncn1)C1CCC1  -4.18%
55. CNC(=O)[C@@H]1C[C@@H](N)CN1C(=O)CCSCc1ccccc1  -4.11%
56. Cc1cc(C)c(CNC(=O)N(C)Cc2ccc3c(c2)OCO3)c(=O)[nH]1  -3.96%
57. Cc1nc(C)n(CC2CN(Cc3ccccc3C#N)CCO2)n1 (stereo not given)  -3.74%
58. Cc1oc(C(C)C)cc1C(=O)N1CCN(c2cnn(C)c(=O)c2)CC1  -3.48%
59. CC(C)c1nn(C)c(N(C)C)c1CNCc1cccc2c1OCO2  -3.25%
60. COc1ccc(OCc2cc(C(=O)N3CC=CC3)n[nH]2)c(Cl)c1  -3%
61. Cc1cc(C)c(CNC(=O)N(C)Cc2ccoc2)c(=O)[nH]1  -2.92%
62. c1ccc(CCCN2CCCC(Nc3cnc4ccccc4n3)C2)cc1 (stereo not given)  -2.78%
63. Cc1nn(-c2ncnc3[nH]cnc23)c2c1C(CC(C)C)CC(=O)N2 (stereo not given)  -2.59%
64. O=C(CN1CCOc2ccccc2C1)NCc1cc2n(n1)CCCNC2  -2.45%
65. O=C(NCCn1ccnc1)c1ccn(-c2ccc(F)cc2)n1  -2.38%
66. Cc1noc(C)c1CN1CCCC1c1c(C)nn(C)c1Cl (stereo not given)  -2.34%
67. C/C(NC(=O)c1ccccn1)=C1\C(=O)C[C@@H]2[C@H]1C2(C)C  -2.07%
68. CC(C)c1nccn1C1CCCN(C(=O)CN(C)C2CC2)C1 (stereo not given)  -2.03%
69. Cc1nnc2n1CCN(C(=O)c1cc(C)n(-c3cccnc3)c1C)C2  -1.82%
70. c1ccc(-n2cc(CNCC3CCCN3c3cccnn3)nn2)cc1 (stereo not given)  -1.58%
71. Cc1nsc(NC(=O)N2CCCCC2CCCO)n1 (stereo not given)  -1.47%
72. OCCn1nccc1C1CCN(CCOc2cccc(F)c2)CC1  -1.45%
73. O=C(CN1CCN(C(=O)c2ccccc2)CC1)Nc1ncc(Br)cc1Br  -1.02%
74. Cc1nccn1-c1cc(CNC(=O)NCC2CCCO2)ccn1 (stereo not given)  -0.7%
75. COCCc1noc(Cn2ccc3ccccc3c2=O)n1  -0.672%
76. Cn1c(CC(=O)O)c(Sc2ccccc2)c2ccccc21  -0.644%
77. Cc1nc(CN2CCCN(CCOc3ccc(C#N)cc3)CC2)no1  -0.262%
78. O=C(O)C(c1ccc2c(c1)OCCO2)N1CCC(N2CCOCC2)CC1 (stereo not given)  0.0244%
79. CC(=O)N1CCN(Cc2ccc(C(F)(F)F)c(F)c2)CC(O)C1 (stereo not given)  0.294%
80. CC(C)c1n[nH]c(C2CN(C(=O)c3cc(C(N)=O)cs3)CCO2)n1 (stereo not given)  0.559%
81. c1ccc2c(c1)CC(n1ccnc1-c1cc3n(n1)CCNC3)CO2 (stereo not given)  1.41%
82. CC[S+](CC)[c-]1c(=O)[nH]c(=O)n(Cc2ccc(F)cc2)c1=O  3.21%
83. O=C(NCC1CCOC1)N1CCN(Cc2ccc3c(c2)OCO3)CC1 (stereo not given)  3.28%
84. O=C(c1cc(Cl)c[nH]1)N1CCCC(c2cc(C(F)(F)F)[nH]n2)C1 (stereo not given)  3.82%
85. CC(C)(O)CCc1cccc(C(=O)N[C@@H](CO)C(N)=O)c1  3.89%
86. COc1ccc(Nc2c[nH]c(=O)[nH]c2=O)cc1  4.35%
87. CC(Cn1cccn1)NCc1nc(-c2ccsc2)no1 (stereo not given)  5.46%
88. Cc1cc(NCCO)nc(-c2ccccc2O)n1  6.62%
89. CCc1nnc(CNC(=O)CCC2CCCCN2C)s1 (stereo not given)  6.71%
90. O=C(Cn1ccc2ccc(F)cc21)NC[C@@H]1CCCN2CCCC[C@H]12  8.28%
91. COc1cccc2c1OCC(CNC(=O)COCC(F)(F)C(F)F)C2 (stereo not given)  8.83%
92. COc1cccc2ccn(CC(=O)NCCC(C)C)c12  11%
93. COc1cccc2ccn(CC(=O)NC(C)C)c12  11.3%
94. Cc1cnn(CC2CCCN2C(=O)c2c(C)noc2C(C)C)c1 (stereo not given)  11.7%
95. Cc1nc(C)n(CC2CCCN(Cc3cccc4c3OCCO4)C2)n1 (stereo not given)  12%
96. CC(C)c1noc(C(C)N2CCN(Cc3cccs3)CC2)n1 (stereo not given)  12.6%
97. COCCn1ccnc1C1CCCN(C(=O)c2cccnc2SC)C1 (stereo not given)  13%
98. O=C(NCCn1ccnc1)c1ccn(-c2ccccc2F)n1  13.4%
99. O=C(NCCCO)c1cc(-c2ccc3c(c2)CCO3)n[nH]1  14.5%
100. O=C(c1cccnc1N1CCCCC1)N1CCCC(n2cccn2)C1 (stereo not given)  15.6%
101. CC(C)c1n[nH]c(C2CN(C(=O)c3cn4ccccc4n3)CCO2)n1 (stereo not given)  15.7%
102. Cc1cc(CN2CCC(c3nccn3C(C)C)CC2)ccc1F  15.8%
103. CCc1ccc(CNC(=O)NCc2nnc3n2CCC3)s1  17.1%
104. CC(C)c1nccn1C1CCCN(C(=O)c2nccnc2N)C1 (stereo not given)  17.2%
105. COc1ccc(C(=O)c2cnc(C(C)C)n2C)cc1  17.7%
106. Cc1cc(C)c(CNC(=O)N(C)Cc2ccc(F)cc2)c(=O)[nH]1  18.3%
107. CCOc1ccnc(N2CCN(C(=O)c3ccoc3)CC2)n1  18.6%
108. O=C(CCn1ccc2cc(Br)ccc21)NC[C@@H]1CCCN2CCCC[C@H]12  19.3%
109. Cc1nc(CN2CCCC2c2c(C)nn(C)c2Cl)oc1C (stereo not given)  19.6%
110. CN(C)c1no[n+]([O-])c1-c1ccccc1  20.3%
111. CC(C)Oc1ccc(CC2=N[C@](C)(CO)CO2)cc1  21.4%
112. COc1ccccc1N1CCN(C(=O)CCn2ccnc2C)CC1(C)C  21.5%
113. Cc1ccc2nc(C3CCCN3C(=O)c3cc(=O)[nH]c(=O)[nH]3)[nH]c2c1 (stereo not given)  30.8%
114. CCN1CC2(CCN(CC3COCCO3)CC2)OC1=O (stereo not given)  44.4%
115. CCC(C(=O)N(C)CCC1=CCN(C)CC1)c1ccccc1 (stereo not given)  57.9%

— ChEMBL document CHEMBL3507680, “University of Dundee, Gates Library screen for HepG2 cell viability”
